ChEMBL document CHEMBL1201862, “PubChem BioAssay data set” (2004)
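Five compound concentrations were applied to cells in 96-well plates for 48 hours; endpoints were derived by simple linear interpolation of the resulting dose-response curve. GI50 = concentration required for 50% inhibition of growth.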 Activity calls are given as the source filed them. No stated cut-off is given here; in the data, active = GI50 up to about 1.1 µM and inactive = higher.

Assays:
Experiment in all cases: inhibition of tumour cell growth, NCI panel, 48 h
A498 = tested on: A498
A549 = tested on: A549
ACHN = tested on: ACHN
CAKI-1 = tested on: CAKI-1
CCRF-CEM = tested on: CCRF-CEM
COLO 205 = tested on: COLO 205
DU-145 = tested on: DU-145
EKVX = tested on: EKVX
HCC 2998 = tested on: HCC 2998
HCT-116 = tested on: HCT-116
HCT-15 = tested on: HCT-15
HL-60 = tested on: HL-60
HOP-62 = tested on: HOP-62
HT-29 = tested on: HT-29
Hs-578T = tested on: Hs-578T
IGROV-1 = tested on: IGROV-1
K562 = tested on: K562
KM12 = tested on: KM12
LOX IMVI = tested on: LOX IMVI
M14 = tested on: M14
MCF7 = tested on: MCF7
MDA-MB-231 = tested on: MDA-MB-231
MDA-MB-435 = tested on: MDA-MB-435
MDA-N = tested on: MDA-N
MOLT-4 = tested on: MOLT-4
Malme-3M = tested on: Malme-3M
NCI-H226 = tested on: NCI-H226
NCI-H23 = tested on: NCI-H23
NCI-H460 = tested on: NCI-H460
NCI-H522 = tested on: NCI-H522
NCI/ADR-RES = tested on: NCI/ADR-RES
OVCAR-3 = tested on: OVCAR-3
OVCAR-4 = tested on: OVCAR-4
OVCAR-5 = tested on: OVCAR-5
OVCAR-8 = tested on: OVCAR-8
PC-3 = tested on: PC-3
RPMI-8226 = tested on: RPMI-8226
RXF 393 = tested on: RXF 393
SF-268 = tested on: SF-268
SF-295 = tested on: SF-295
SF-539 = tested on: SF-539
SK-MEL-28 = tested on: SK-MEL-28
SK-MEL-2 = tested on: SK-MEL-2
SK-MEL-5 = tested on: SK-MEL-5
SK-OV-3 = tested on: SK-OV-3
SN12C = tested on: SN12C
SNB-19 = tested on: SNB-19
SNB-75 = tested on: SNB-75
SR = tested on: SR
SW-620 = tested on: SW-620
T47D = tested on: T47D
TK-10 = tested on: TK-10
U-251 = tested on: U-251
UACC-62 = tested on: UACC-62
UO-31 = tested on: UO-31

O=c1cc(-c2ccccc2)nc2[nH]ccn12
GI50 (A498): > 10 µM (inactive) | GI50 (A549): > 10 µM (inactive) | GI50 (ACHN): > 10 µM (inactive) | GI50 (CAKI-1): > 10 µM (inactive) | GI50 (CCRF-CEM): > 10 µM (inactive) | GI50 (COLO 205): > 10 µM (inactive) | GI50 (DU-145): > 10 µM (inactive) | GI50 (EKVX): > 10 µM (inactive) | GI50 (HCC 2998): > 10 µM (inactive) | GI50 (HCT-116): > 10 µM (inactive) | GI50 (HCT-15): > 10 µM | GI50 (HL-60): > 10 µM (inactive) | GI50 (HOP-62): > 10 µM (inactive) | GI50 (HT-29): > 10 µM (inactive) | GI50 (Hs-578T): > 10 µM (inactive) | GI50 (IGROV-1): > 10 µM (inactive) | GI50 (K562): > 10 µM (inactive) | GI50 (KM12): > 10 µM (inactive) | GI50 (LOX IMVI): > 10 µM (inactive) | GI50 (M14): > 10 µM (inactive) | GI50 (MCF7): > 10 µM (inactive) | GI50 (MDA-MB-231): > 10 µM (inactive) | GI50 (MDA-MB-435): > 10 µM (inactive) | GI50 (MDA-N): > 10 µM (inactive) | GI50 (MOLT-4): > 10 µM (inactive) | GI50 (Malme-3M): > 10 µM (inactive) | GI50 (NCI-H226): > 10 µM (inactive) | GI50 (NCI-H23): > 10 µM (inactive) | GI50 (NCI-H460): > 10 µM (inactive) | GI50 (NCI-H522): > 10 µM (inactive) | GI50 (NCI/ADR-RES): > 10 µM (inactive) | GI50 (OVCAR-3): > 10 µM (inactive) | GI50 (OVCAR-4): > 10 µM (inactive) | GI50 (OVCAR-5): > 10 µM (inactive) | GI50 (OVCAR-8): > 10 µM (inactive) | GI50 (PC-3): > 10 µM (inactive) | GI50 (RPMI-8226): > 10 µM (inactive) | GI50 (RXF 393): > 10 µM (inactive) | GI50 (SF-268): > 10 µM (inactive) | GI50 (SF-295): > 10 µM (inactive) | GI50 (SF-539): > 10 µM (inactive) | GI50 (SK-MEL-28): > 10 µM (inactive) | GI50 (SK-MEL-2): > 10 µM (inactive) | GI50 (SK-MEL-5): > 10 µM (inactive) | GI50 (SK-OV-3): > 10 µM (inactive) | GI50 (SN12C): > 10 µM (inactive) | GI50 (SNB-19): > 10 µM (inactive) | GI50 (SNB-75): 6.25 µM (inactive) | GI50 (SR): > 10 µM (inactive) | GI50 (SW-620): > 10 µM (inactive) | GI50 (T47D): > 10 µM (inactive) | GI50 (TK-10): > 10 µM (inactive) | GI50 (U-251): > 10 µM (inactive) | GI50 (UACC-62): > 10 µM (inactive) | GI50 (UO-31): 7.87 µM (inactive)
